Assay results from US5998580A, “Photosensitive caged macromolecules” (priority 1995, dated 1999).
Where no end group is shown, it is not given here. The star is where a group is joined. α‑carboxy 2‑nitrobenzyl = O=C(O)C(c1ccccc1[N+](=O)[O-])*

Key:
[1] = system: toad stomach smooth muscle cells; assay: rate of shortening of single smooth muscle cells (calcium-mediated contraction); assay type: cell-based; conditions: 200 μM; after photolysis versus without photolysis (FIG. 5)
Experimental: The in vivo effects of 1-CAG-RS-20 (200 μM) on the rate of shortening of single smooth muscle cells both before and after UV exposure was performed essentially as described in Itoh et al. (Nature 338: 164-67, 1989). Images of the cells were recorded using phase contrast optics and measurements of cell length were carried out as described by Itoh et al., supra. An interactive computer analysis program was used to measure cell length at successive intervals after the onset of cell membrane depolarization and subsequent increase in cytoplasmic Ca^2+ concentration that normally triggers contraction.

[2] = system: Smooth muscle myosin light chain kinase (MLCK); assay: inhibition of smooth muscle myosin light chain kinase (MLCK) activity, 32P incorporation into light chain; assay type: biochemical; conditions: before photolysis; 100 nM calmodulin
Experimental: (§1) The standard photolysis protocol involves exposure of caged peptide (0.1 to 1 ml; 0.1 mM to 1 mM in 50 mM Tris pH 7.5) in a quartz cuvette (1 cm path length) to the beam of a continuous 75 watt Xenon arc lamp that is filtered through a 300-350 nm band pass filter (UG-11 filter). This standard in vitro photolysis protocol was carried out for 30 minutes at room temperature.
Smooth muscle myosin light chain kinase (MLCK) (0.5 μg/ml) was incubated with various concentrations of synthetic caged peptide (e.g., 1-CAG-RS-20 and 9-NPG-RS-20) in the presence of 100 nM calmodulin, 0.1 mM CaCl2, 100 mM KCL, 0.2 mg/ml myosin regulatory light chain, 1 mM MgCl2, and 30 mM Tris-HCL (pH 7.5) at 25° C. for 5 minutes. 1-CAG-RS-20 and 9-NPG-RS-20 were photolyzed using the standard photolysis protocol (see above) and the uncaged peptide was purified away from by-products and caged peptides prior to the enzymatic assay using reverse phase HPLC. The phosphorylation reaction was started by adding 50 μM ^32 P-ATP. The incorporation of ^32 P into the light chain was measured by scintillation counter and the inhibitory effect of the peptide on myosin light chain kinase was determined.

calmodulin = target: T1, calmodulin (Homo sapiens, UniProt P0DP23); assay: binding to calmodulin agarose column before and after photolysis
T1 construct: purchased Sigma Chemical Co
Experimental: The 1-CAG-RS-20 was evaluated for its ability to bind a calmodulin agarose column before and after photolysis. This experiment was carried out as follows. 5 mls of calmodulin agarose (Sigma Chemical Co.) was poured into a 1 cm×10 cm glass column and equilibrated with 50 mM Tris pH 7.5, 1 mM CaEGTA, pCa 4.5 (where pCa=-log free […]. 100 nmoles 1CAGRS-20 in 1 ml of the same solution was loaded onto the column and eluted with the same solution while 14×1.5 ml fractions were collected. The elutant was then changed to 50 mM Tris pH 7.5, 1 mM EGTA, pCa 9 and 14×1.5 ml additional fractions were collected. Each fraction was analyzed for peptide by UV absorbance at 272 nm. A second 100 nmole aliquot of 1-CAG-RS-20 was irradiated by the standard photolysis protocol (see below) and loaded onto the calmodulin agarose column after extensive washing and reequilibration in the original pCa 4.5 solution.
as §1

[3] = system: single smooth muscle cells; assay: calcium-dependent enhancement of calcium (inward) current after repetitive depolarization in single smooth muscle cells; assay type: cell-based; conditions: cell injected with peptide
Experimental: The in vivo effects of 1-CAG-RS-20 on calcium-dependent enhancement of calcium current in smooth muscle were evaluated according to the methods described by McCarron et al. (Nature 357: 74-77). Photolysis of 1-CAG-RS-20 was accomplished by selectively exposing cells to a beam of UV irradiation using a light source fitted with a controllable shutter. In addition, experiments were carried out by recording phase contrast images in the far red portion of the spectrum to monitor the effects of 1-CAG-RS-20 on the contractile responses of the cells to Ca^2+ influx resulting from depolarization. Data was analyzed according to the methods described in Itoh et al. (Nature 338: 164-167, 1989).
Shown in these panels (FIG. 3) are the inward currents resulting from depolarization both before and after the train of depolarizing pulses. The trace labelled #1 was obtained before the train and that after the train is labelled #2 (FIG. 3C).

1-CAG-RS-20: RS-20 caged analog containing caged tyrosine (α-carboxy 2-nitrobenzyl) at position 5 (ARRKY(α‑carboxy 2‑nitrobenzyl)QKTGHAVRAIGRLSS)
rate of cell shortening [1]: shortened more slowly | inhibition of MLCK activity [2]: failed to significantly inhibit MLCK activity | binding to calmodulin agarose column (calmodulin; before photolysis, in the presence of Ca2+ (pCa 4.5), 100 nmoles loaded): does not bind appreciably | binding to calmodulin agarose column (calmodulin; following photolysis, in the presence of Ca2+, binding reversed by EGTA): binds strongly | enhancement of inward current following a train of depolarizing stimuli ([3]; following photolysis (FIG. 3D)): blocked | enhancement of inward current following a train of depolarizing stimuli ([3]; prior to exposure to ultraviolet light (FIG. 3C)): the inward current was enhanced
